Results taken from patent publication US20150284347A1, “NEW BENZENE SULFONAMIDE THIAZOLE COMPOUNDS” (INSERM (INSTITUT NATIONAL DE LA SANTÉ ET DE LA RECHERCHE …, priority 2012, published 2015).

System: normal human melanocytes
Assay: Trypan blue cell viability, normal melanocytes
Type: cell-based
Conditions: 10 μM, FIG. 2
Procedure: Primary cell cultures of human normal melanocytes were prepared from human foreskin. In order to determine the effect of compound HA15 on cell viability of melanocytes and fibroblasts, 10 μM of ciglitazone or 10 μM of HA15 were added to the cell samples. The measure of cell viability was performed in the same way as for FIG. 1. Results are expressed as the percentage of living cells relatively to the number of living cells in the presence of DMSO, as for FIG. 1. Normal human melanocytes (NHM) prepared from foreskins of newborns were grown under 5% CO2 at 37° C. in MCDB 153 (Sigma) supplemented with 2% FCS, bovine pituitary extract (10 μg/ml), PMA (8 nM), bFGF (ing/nil), insulin (5 μg/ml), hydrocortisone (0.5 μg/ml), forskolin (10 μM), gentamicin (20 μg/ml), penicillin/streptomycin/amphotericin B (100 U/ml) (Invitrogen). Cells were seeded in 6-well plates (60000 cells/well), depleted and incubated with compounds for the times indicated. Then cells were detached in the presence of 2000 of […] (Thermo) and 2 ml of RPMI 1640 Glutamax (Gibco) was added to the cell solution. 100 of this solution was stained for 1 minute with 100 of 0.4% trypan blue before counting with a Malassez chamber. The effect of compound HA15 on cell viability of melanocytes and fibroblasts was studied, as illustrated by FIG. 2. Primary cell cultures of human normal melanocytes were prepared from human foreskin. […]

CC(=O)Nc1nc(-c2cccc(NS(=O)(=O)c3cccc4c(N(C)C)cccc34)c2)cs1 [HA15, N-(4-(3-(5-(dimethylamino)naphthalene-1-sulfonamido)phenyl)thiazol-2-yl)acetamide] was tested, and the “cell viability of normal melanocytes” value was “not affected”.
